Measured values: the NIST ThermoML archive (doi:10.1021/je049612f)
Numbers after ± are expanded uncertainties.

Details: Gas, Vibrating wire viscometry

FS(F)(F)(F)(F)F [sulfur hexafluoride]
Details	viscosity [mPa·s]
375 K, 11030 kPa	0.06052 ± 0.0012
375 K, 11466 kPa	0.06322 ± 0.0013
375 K, 12235 kPa	0.0678 ± 0.0013
375 K, 12730 kPa	0.07044 ± 0.0013
375 K, 13213 kPa	0.07319 ± 0.0014
375 K, 13867 kPa	0.07655 ± 0.0014
375 K, 14447 kPa	0.07948 ± 0.0014
375 K, 15713 kPa	0.08527 ± 0.0015
375 K, 16802 kPa	0.09 ± 0.0015
400 K, 100.75 kPa	0.0197 ± 0.00093
400 K, 127.69 kPa	0.01971 ± 0.00093
400 K, 153.61 kPa	0.01972 ± 0.00093
400 K, 174.48 kPa	0.01973 ± 0.00093
400 K, 200.5 kPa	0.01973 ± 0.00093
400 K, 224.7 kPa	0.01975 ± 0.00093
400 K, 249.97 kPa	0.01975 ± 0.00093
400 K, 276.92 kPa	0.01976 ± 0.00093
400 K, 316.57 kPa	0.01977 ± 0.00093
400 K, 356.06 kPa	0.01979 ± 0.00093
400 K, 387.16 kPa	0.0198 ± 0.00093
400 K, 431.42 kPa	0.01981 ± 0.00093
400 K, 458.7 kPa	0.01982 ± 0.00093
400 K, 482.84 kPa	0.01983 ± 0.00093
400 K, 520.38 kPa	0.01984 ± 0.00093
400 K, 569.64 kPa	0.01987 ± 0.00093
400 K, 636.33 kPa	0.01989 ± 0.00093
400 K, 669.9 kPa	0.0199 ± 0.00093
400 K, 702.5 kPa	0.01991 ± 0.00093
400 K, 753.74 kPa	0.01994 ± 0.00093
400 K, 791.41 kPa	0.01995 ± 0.00093
400 K, 818.44 kPa	0.01996 ± 0.00093
400 K, 853.97 kPa	0.01998 ± 0.00093
400 K, 930.59 kPa	0.02001 ± 0.00093
400 K, 972.98 kPa	0.02003 ± 0.00093
400 K, 1025.6 kPa	0.02006 ± 0.00093
400 K, 1088.2 kPa	0.02009 ± 0.00093
400 K, 1153.3 kPa	0.02012 ± 0.00093
400 K, 1240.9 kPa	0.02017 ± 0.00093
400 K, 1319.7 kPa	0.02022 ± 0.00093
400 K, 1397.4 kPa	0.02025 ± 0.00093
400 K, 1462.5 kPa	0.02029 ± 0.00093
400 K, 1615.7 kPa	0.02039 ± 0.00093
400 K, 1688.5 kPa	0.02043 ± 0.00093
400 K, 1768 kPa	0.02049 ± 0.00093
400 K, 1876.4 kPa	0.02057 ± 0.00093
400 K, 1956 kPa	0.02063 ± 0.00093
400 K, 2349.8 kPa	0.02093 ± 0.00094
400 K, 2474.2 kPa	0.02104 ± 0.00094
400 K, 2539.4 kPa	0.02109 ± 0.00094
400 K, 2835.4 kPa	0.02138 ± 0.00094
400 K, 3021.7 kPa	0.02156 ± 0.00094
400 K, 3266.3 kPa	0.02184 ± 0.00094
400 K, 3463.7 kPa	0.02205 ± 0.00094
400 K, 3614.2 kPa	0.02225 ± 0.00095
400 K, 3864.1 kPa	0.02256 ± 0.00095
400 K, 4152.9 kPa	0.02298 ± 0.00095
400 K, 4564.1 kPa	0.02363 ± 0.00096
400 K, 4898.5 kPa	0.02421 ± 0.00096
400 K, 5193.2 kPa	0.02477 ± 0.00097
400 K, 5460.7 kPa	0.02531 ± 0.00097
400 K, 5742.7 kPa	0.02594 ± 0.00098
400 K, 6016.6 kPa	0.02658 ± 0.00098
400 K, 6359.6 kPa	0.02746 ± 0.00099
400 K, 6659.9 kPa	0.02831 ± 0.00099
400 K, 6950.7 kPa	0.02917 ± 0.001
400 K, 7241 kPa	0.03009 ± 0.001
400 K, 7553 kPa	0.03115 ± 0.001
400 K, 7833.9 kPa	0.03216 ± 0.001
400 K, 8142 kPa	0.03332 ± 0.001
400 K, 8490.6 kPa	0.03475 ± 0.001
400 K, 8799 kPa	0.03604 ± 0.0011
400 K, 9139.9 kPa	0.0375 ± 0.0011
400 K, 9483.5 kPa	0.03903 ± 0.0011
400 K, 9833.2 kPa	0.0407 ± 0.0011
400 K, 10191 kPa	0.04234 ± 0.0011
400 K, 10589 kPa	0.04429 ± 0.0011
400 K, 11000 kPa	0.04619 ± 0.0011
400 K, 11434 kPa	0.04827 ± 0.0011
400 K, 11902 kPa	0.05055 ± 0.0012
400 K, 12397 kPa	0.05295 ± 0.0012
400 K, 12979 kPa	0.05567 ± 0.0012
400 K, 13719 kPa	0.05901 ± 0.0012
400 K, 14342 kPa	0.06179 ± 0.0013
400 K, 15061 kPa	0.06486 ± 0.0013
400 K, 15882 kPa	0.0684 ± 0.0013
400 K, 16792 kPa	0.07201 ± 0.0013
400 K, 17814 kPa	0.076 ± 0.0014
400 K, 18718 kPa	0.07939 ± 0.0014
400 K, 19958 kPa	0.08386 ± 0.0015
425 K, 94.41 kPa	0.02078 ± 0.00094
425 K, 120.34 kPa	0.0208 ± 0.00094
425 K, 155.2 kPa	0.02081 ± 0.00094
425 K, 171.36 kPa	0.02081 ± 0.00094
425 K, 192.07 kPa	0.02082 ± 0.00094
425 K, 205.12 kPa	0.02083 ± 0.00094
425 K, 228.29 kPa	0.02084 ± 0.00094
425 K, 263.75 kPa	0.02085 ± 0.00094
425 K, 289.54 kPa	0.02086 ± 0.00094
425 K, 311.35 kPa	0.02086 ± 0.00094
425 K, 345.33 kPa	0.02088 ± 0.00094
425 K, 374.1 kPa	0.02088 ± 0.00094
425 K, 392.73 kPa	0.02089 ± 0.00094
425 K, 424.79 kPa	0.0209 ± 0.00094
425 K, 466.85 kPa	0.02092 ± 0.00094
425 K, 503.16 kPa	0.02093 ± 0.00094
425 K, 552.86 kPa	0.02095 ± 0.00094
425 K, 598.07 kPa	0.02097 ± 0.00094
425 K, 629.86 kPa	0.02098 ± 0.00094
425 K, 668.63 kPa	0.021 ± 0.00094
425 K, 715.37 kPa	0.02101 ± 0.00094
425 K, 764.24 kPa	0.02103 ± 0.00094
425 K, 813.31 kPa	0.02105 ± 0.00094
425 K, 867.54 kPa	0.02108 ± 0.00094
425 K, 939.66 kPa	0.02111 ± 0.00094
425 K, 997 kPa	0.02114 ± 0.00094
425 K, 1067.1 kPa	0.02117 ± 0.00094
425 K, 1141.5 kPa	0.02121 ± 0.00094
425 K, 1213.4 kPa	0.02124 ± 0.00094
425 K, 1299.4 kPa	0.02129 ± 0.00094
425 K, 1385.6 kPa	0.02133 ± 0.00094
425 K, 1442.8 kPa	0.02137 ± 0.00094
425 K, 1506.3 kPa	0.02141 ± 0.00094
425 K, 1587.6 kPa	0.02145 ± 0.00094
425 K, 1656.3 kPa	0.02149 ± 0.00094
425 K, 1757.6 kPa	0.02155 ± 0.00094
425 K, 1833.5 kPa	0.0216 ± 0.00094
425 K, 1920.5 kPa	0.02166 ± 0.00094
425 K, 2344.2 kPa	0.02196 ± 0.00094
425 K, 2479.6 kPa	0.02206 ± 0.00094
425 K, 2578.5 kPa	0.02214 ± 0.00095
425 K, 2931.1 kPa	0.02244 ± 0.00095
425 K, 3150.4 kPa	0.02264 ± 0.00095
425 K, 3325.5 kPa	0.02282 ± 0.00095
425 K, 3586.1 kPa	0.02307 ± 0.00095
425 K, 3797.1 kPa	0.0233 ± 0.00096
425 K, 4066.4 kPa	0.02362 ± 0.00096
425 K, 4298.8 kPa	0.02388 ± 0.00096
425 K, 4546.2 kPa	0.0242 ± 0.00096
425 K, 4863.6 kPa	0.02464 ± 0.00097
425 K, 5124.6 kPa	0.02501 ± 0.00097
425 K, 5454.2 kPa	0.02553 ± 0.00097
425 K, 5739.4 kPa	0.026 ± 0.00098
425 K, 6056.4 kPa	0.02654 ± 0.00098
425 K, 6339.5 kPa	0.02706 ± 0.00098
425 K, 6654.3 kPa	0.02768 ± 0.00099
425 K, 7006 kPa	0.0284 ± 0.001
425 K, 7363.2 kPa	0.02921 ± 0.001
425 K, 7712.7 kPa	0.03006 ± 0.001
425 K, 8064.1 kPa	0.03097 ± 0.001
425 K, 8392.3 kPa	0.03179 ± 0.001
425 K, 8760.7 kPa	0.03277 ± 0.001
425 K, 9135.4 kPa	0.03386 ± 0.001
425 K, 9514.5 kPa	0.03501 ± 0.001
425 K, 9876.1 kPa	0.03614 ± 0.0011
425 K, 10296 kPa	0.03744 ± 0.0011
425 K, 10899 kPa	0.03948 ± 0.0011
425 K, 11563 kPa	0.04171 ± 0.0011
425 K, 11725 kPa	0.04223 ± 0.0011
425 K, 12199 kPa	0.04389 ± 0.0011
425 K, 12731 kPa	0.04579 ± 0.0011
425 K, 13246 kPa	0.04767 ± 0.0011
425 K, 14152 kPa	0.0509 ± 0.0012
425 K, 14767 kPa	0.05309 ± 0.0012
425 K, 15462 kPa	0.05563 ± 0.0012
425 K, 16201 kPa	0.05822 ± 0.0012
425 K, 17025 kPa	0.06094 ± 0.0012
425 K, 17904 kPa	0.06397 ± 0.0013
425 K, 18751 kPa	0.06707 ± 0.0013
425 K, 19579 kPa	0.06993 ± 0.0013
425 K, 20442 kPa	0.07271 ± 0.0014
